How the values were obtained:
Format in all cases: in vivo
[1] = test system: susceptible or neonicotinoid-resistant Myzus persicae population; assay: Pea seedling spray test, mortality of susceptible and neonicotinoid-resistant populations (Example 2); conditions: ratio of rates for 80% mortality, resistant versus susceptible Myzus persicae; BP80 = lowest known rate providing 80% or more mortality; 6 days after treatment; pea seedlings
Experimental: Pea seedlings, infested with a susceptible or neonicotinoid-resistant Myzus persicae population of mixed ages, respectively, are treated with the test solutions (200, 50, 12.5, 3, 0.8, 0.2, 0.05 ppm a.i.) in a turn table spray chamber. 6 days after treatment, samples are checked for mortality.
The results of the resistance factor at BP80 (lowest known rate providing 80% or more mortality) are indicated below.

[2] = test system: neonicotinoid insecticide resistant aphid strain; assay: Leaf disc spray bioassay on chinese cabbage, aphid mortality (Example 1), resistant strain; conditions: resistant aphid strain from peach orchard, Avignon region, mixed age aphids, mortality 72 hours after treatment
Experimental: (§1) 5 cm leaf discs were taken from fully expanded chinese cabbage leaves and placed with the underside facing upwards onto water agar in 5 cm Petri dishes. The leaf discs are infested with between 30 and 40 mixed age aphids 24 hours prior to insecticide treatment. The leaf surface is sprayed with the appropriate test solutions in a Burkhard Potter Tower at an approximate water volume of […]. Test containers are stored at 21° C., 60% RH and 16:8 light/dark. Aphids were assessed for mortality 72 hours after treatment.

[3] = test system: neonicotinoid insecticide susceptible strain 4106A; assay: Leaf disc spray bioassay on chinese cabbage, aphid mortality (Example 1), susceptible strain; conditions: susceptible strain 4106A (Rothamsted Research), mixed age aphids, mortality 72 hours after treatment
Experimental: as §1

SMILES: CO/N=C(\C)CNC(=O)c1cnccc1C(F)(F)F
- resistance factor at BP80 [1]: 4

SMILES: NC(=O)c1cnccc1C(F)(F)F [158062-71-6]
- resistance factor at BP80 [1]: 4

SMILES: CNC(=O)c1cnccc1C(F)(F)F [158062-76-1]
- resistance factor at BP80 [1]: 1

SMILES: CN(C)C(=O)c1cnccc1C(F)(F)F [158063-01-5]
- resistance factor at BP80 [1]: 1.7

SMILES: O=C(NCc1ccc(Cl)cc1)c1cnccc1C(F)(F)F [158063-19-5]
- resistance factor at BP80 [1]: >16

SMILES: O=C(NCN1CCCC1)c1cnccc1C(F)(F)F [158063-50-4]
- resistance factor at BP80 [1]: 1

SMILES: O=C(NCc1ccccn1)c1cnccc1C(F)(F)F [164149-37-5]
- resistance factor at BP80 [1]: 4

SMILES: Cc1noc(-c2cnccc2C(F)(F)F)n1 [276684-49-2]
- resistance factor at BP80 [1]: <1

SMILES: CN(O)C(=O)c1cnccc1C(F)(F)F [323180-93-4]
- resistance factor at BP80 [1]: Not adequate control for 80% mortality on sensitive & resistance strains

SMILES: O=C(c1cnccc1C(F)(F)F)N(O)Cc1ccccc1 [323181-02-8]
- resistance factor at BP80 [1]: >1

SMILES: O=C(N=S(c1ccccc1)c1ccccc1)c1cnccc1C(F)(F)F [362724-14-9]
- resistance factor at BP80 [1]: 4

SMILES: CC(C)N1CN=C(c2cnccc2C(F)(F)F)OC1=O [1098412-17-9]
- resistance factor at BP80 [1]: 1

SMILES: C/C(=N\C#N)N(C)Cc1ccc(Cl)nc1 [acetamiprid]
- LC50 with 95% confidence limit, resistant strain [2]: 49.3 (35.2-72.0) ppm
- LC50 with 95% confidence limit, susceptible strain [3]: 0.55 (0.51-0.59) ppm

SMILES: CN/C(=N\[N+](=O)[O-])NCc1cnc(Cl)s1 [clothianidin]
- LC50 with 95% confidence limit, resistant strain [2]: 904 (478-3616) ppm
- LC50 with 95% confidence limit, susceptible strain [3]: 0.33 (0.28-0.38) ppm

SMILES: CN/C(=N/CC1CCOC1)N[N+](=O)[O-] (stereo not drawn) [dinotefuran]
- LC50 with 95% confidence limit, resistant strain [2]: 538 (435-696) ppm
- LC50 with 95% confidence limit, susceptible strain [3]: 9.95 (8.21-12.5) ppm

SMILES: N#CCNC(=O)c1cnccc1C(F)(F)F [flonicamid]
- LC50 with 95% confidence limit, resistant strain [2]: 2.74 (0.53-6.81) ppm
- LC50 with 95% confidence limit, susceptible strain [3]: 1.65 (1.3-2.09) ppm

SMILES: CCN(Cc1ccc(Cl)nc1)/C(=C/[N+](=O)[O-])NC [nitenpyram]
- LC50 with 95% confidence limit, resistant strain [2]: 237 (93.7-3566) ppm
- LC50 with 95% confidence limit, susceptible strain [3]: 1.26 (1.03-1.61) ppm

SMILES: N#C/N=C1\SCCN1Cc1ccc(Cl)nc1 [thiacloprid]
- LC50 with 95% confidence limit, resistant strain [2]: >1000 ppm
- LC50 with 95% confidence limit, susceptible strain [3]: 0.38 (0.34-0.42) ppm

SMILES: CN1COCN(Cc2cnc(Cl)s2)/C1=N/[N+](=O)[O-] [thiamethoxam]
- LC50 with 95% confidence limit, resistant strain [2]: 148 (128-172) ppm
- LC50 with 95% confidence limit, susceptible strain [3]: 0.35 (0.3-0.41) ppm
- resistance factor at BP80 [1]: >250

Source: patent US20130231334A1, “METHODS OF CONTROLLING NEONICOTINOID RESISTANT APHIDS” (SYNGENTA CROP PROTECTION LLC, priority 2010, published 2013)
